Measurements reported in PMC12593347, “Profiling Class-Wide Bioactivities of Flavonoids While Minimizing Compound-Specific Effects Using an Equimolar Mixture Strategy” (Journal of Agricultural and Food Chemistry, 2025).

Molecular target: T1, amyloid-β1–42 (Aβ1–42) (Homo sapiens, UniProt P05067)
T1 construct: gene APP; Aβ1–42 monomers, biotinylated, immobilized on streptavidin biosensor
Test: biolayer interferometry (Octet R8), steady-state […] fit
Type: binding

T1 sequence (P05067 672-713): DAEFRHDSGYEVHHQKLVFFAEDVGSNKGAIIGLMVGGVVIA

**Q.** How did the Kd turn out when `O=C(O[C@@H]1Cc2c(O)cc(O)cc2O[C@@H]1c1cc(O)c(O)c(O)c1)c1cc(O)c(O)c(O)c1` [EGCG] was run?
**A.** 93 µM
